Results on nine compounds are retold here after ChEMBL document CHEMBL5291721, “A preclinical secondary pharmacology resource illuminates target-adverse drug reaction associations of marketed drugs” (Nat Commun, 2023).

One experiment concerns the target Acetylcholinesterase (Homo sapiens, UniProt P22303). The experiment is classed as functional.
The target in the next experiment is T1, Adenosine receptor A3 (Homo sapiens, UniProt P0DMS8).
T1 sequence (P0DMS8 whole entry): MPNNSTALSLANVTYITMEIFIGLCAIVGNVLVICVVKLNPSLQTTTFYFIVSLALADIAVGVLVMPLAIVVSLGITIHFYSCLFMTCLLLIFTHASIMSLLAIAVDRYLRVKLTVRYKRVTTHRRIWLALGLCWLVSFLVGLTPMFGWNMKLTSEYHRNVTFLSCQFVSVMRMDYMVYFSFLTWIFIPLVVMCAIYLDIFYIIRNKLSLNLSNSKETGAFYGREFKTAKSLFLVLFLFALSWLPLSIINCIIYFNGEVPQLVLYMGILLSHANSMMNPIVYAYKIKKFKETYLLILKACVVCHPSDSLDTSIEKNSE

The target in experiment [1] is T2, Alpha-1A adrenergic receptor (Homo sapiens, UniProt P35348).
T2 sequence (P35348 whole entry): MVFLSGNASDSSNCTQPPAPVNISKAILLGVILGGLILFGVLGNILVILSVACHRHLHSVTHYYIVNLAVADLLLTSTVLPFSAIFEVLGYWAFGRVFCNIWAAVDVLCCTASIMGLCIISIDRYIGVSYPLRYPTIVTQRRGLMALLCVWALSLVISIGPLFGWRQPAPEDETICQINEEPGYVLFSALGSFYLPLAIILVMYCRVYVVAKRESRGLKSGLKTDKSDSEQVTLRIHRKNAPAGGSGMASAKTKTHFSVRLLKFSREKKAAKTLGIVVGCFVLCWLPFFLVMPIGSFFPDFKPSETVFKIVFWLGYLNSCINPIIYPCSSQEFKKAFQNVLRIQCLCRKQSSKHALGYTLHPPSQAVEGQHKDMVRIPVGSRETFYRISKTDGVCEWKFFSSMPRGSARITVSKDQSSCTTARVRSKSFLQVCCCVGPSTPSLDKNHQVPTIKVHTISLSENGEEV
The format is functional, cell-based.

Experiment [2] has as its target T2, Alpha-1A adrenergic receptor. The experiment is classed as functional, cell-based. This is another data set of the same source.
Experiment [3] concerns the target T3, Alpha-2A adrenergic receptor (Homo sapiens, UniProt P08913).
T3 sequence (P08913 whole entry): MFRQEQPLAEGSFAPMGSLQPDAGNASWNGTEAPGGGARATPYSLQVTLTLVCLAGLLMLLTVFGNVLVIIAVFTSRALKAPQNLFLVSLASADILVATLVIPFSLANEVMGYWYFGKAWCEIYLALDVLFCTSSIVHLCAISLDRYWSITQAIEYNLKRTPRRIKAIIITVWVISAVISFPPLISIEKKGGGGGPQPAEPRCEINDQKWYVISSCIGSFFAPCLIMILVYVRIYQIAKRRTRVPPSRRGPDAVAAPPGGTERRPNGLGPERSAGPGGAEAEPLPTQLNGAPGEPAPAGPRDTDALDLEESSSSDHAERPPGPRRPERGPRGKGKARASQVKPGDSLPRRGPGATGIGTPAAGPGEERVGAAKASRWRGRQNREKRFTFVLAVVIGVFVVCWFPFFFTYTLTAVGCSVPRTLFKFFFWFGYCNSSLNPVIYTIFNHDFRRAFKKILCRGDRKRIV

The target of experiment [4] is T4, Muscarinic acetylcholine receptor M2 (Homo sapiens, UniProt P08172).
T4 sequence (P08172 whole entry): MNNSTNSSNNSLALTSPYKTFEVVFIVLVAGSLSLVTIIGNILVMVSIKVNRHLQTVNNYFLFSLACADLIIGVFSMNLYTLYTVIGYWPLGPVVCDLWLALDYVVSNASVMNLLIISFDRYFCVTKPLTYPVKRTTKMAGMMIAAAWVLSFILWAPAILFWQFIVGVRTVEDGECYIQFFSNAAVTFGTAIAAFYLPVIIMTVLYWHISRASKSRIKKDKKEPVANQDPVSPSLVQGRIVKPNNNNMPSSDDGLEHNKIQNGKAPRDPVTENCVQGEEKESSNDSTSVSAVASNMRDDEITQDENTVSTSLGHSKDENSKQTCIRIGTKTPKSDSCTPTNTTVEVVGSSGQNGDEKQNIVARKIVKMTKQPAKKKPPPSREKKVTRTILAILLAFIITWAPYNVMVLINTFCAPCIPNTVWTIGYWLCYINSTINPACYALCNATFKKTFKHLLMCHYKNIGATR

For a further experiment, the target named is D(1A) dopamine receptor (Homo sapiens, UniProt P21728).
Sequence of D(1A) dopamine receptor (P21728 whole entry): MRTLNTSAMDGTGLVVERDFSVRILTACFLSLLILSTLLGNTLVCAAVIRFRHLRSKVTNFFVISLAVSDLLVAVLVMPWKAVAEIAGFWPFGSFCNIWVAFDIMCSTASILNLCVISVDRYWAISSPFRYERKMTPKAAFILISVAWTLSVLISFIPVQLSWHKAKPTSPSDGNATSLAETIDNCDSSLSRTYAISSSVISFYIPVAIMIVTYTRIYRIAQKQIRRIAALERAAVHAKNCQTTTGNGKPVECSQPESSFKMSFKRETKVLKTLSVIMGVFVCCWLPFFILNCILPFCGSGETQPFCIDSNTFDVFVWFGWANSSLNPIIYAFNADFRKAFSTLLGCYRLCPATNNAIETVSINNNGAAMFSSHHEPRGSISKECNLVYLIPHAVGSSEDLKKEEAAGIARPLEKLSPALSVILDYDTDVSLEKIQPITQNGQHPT
The next experiment concerns the target Prothrombin (Homo sapiens, UniProt P00734). The experiment is classed as functional.
Experiment [5] addresses T5, 5-hydroxytryptamine receptor 1A (Homo sapiens, UniProt P08908).
T5 sequence (P08908 whole entry): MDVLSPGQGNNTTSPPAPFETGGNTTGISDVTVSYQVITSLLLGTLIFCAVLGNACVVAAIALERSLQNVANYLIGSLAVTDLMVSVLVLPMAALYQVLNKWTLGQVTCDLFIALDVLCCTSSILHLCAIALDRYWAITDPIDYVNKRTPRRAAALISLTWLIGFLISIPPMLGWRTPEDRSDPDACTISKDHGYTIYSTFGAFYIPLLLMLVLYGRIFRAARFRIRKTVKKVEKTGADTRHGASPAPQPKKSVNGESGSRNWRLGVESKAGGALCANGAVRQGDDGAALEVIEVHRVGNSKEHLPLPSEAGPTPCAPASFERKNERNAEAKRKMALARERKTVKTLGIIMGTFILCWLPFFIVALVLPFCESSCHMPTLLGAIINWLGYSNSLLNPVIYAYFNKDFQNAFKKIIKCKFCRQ

The target of experiment [6] is 5-hydroxytryptamine receptor 2B (Homo sapiens, UniProt P41595). The experiment is classed as functional, cell-based.
Sequence of 5-hydroxytryptamine receptor 2B (P41595 whole entry): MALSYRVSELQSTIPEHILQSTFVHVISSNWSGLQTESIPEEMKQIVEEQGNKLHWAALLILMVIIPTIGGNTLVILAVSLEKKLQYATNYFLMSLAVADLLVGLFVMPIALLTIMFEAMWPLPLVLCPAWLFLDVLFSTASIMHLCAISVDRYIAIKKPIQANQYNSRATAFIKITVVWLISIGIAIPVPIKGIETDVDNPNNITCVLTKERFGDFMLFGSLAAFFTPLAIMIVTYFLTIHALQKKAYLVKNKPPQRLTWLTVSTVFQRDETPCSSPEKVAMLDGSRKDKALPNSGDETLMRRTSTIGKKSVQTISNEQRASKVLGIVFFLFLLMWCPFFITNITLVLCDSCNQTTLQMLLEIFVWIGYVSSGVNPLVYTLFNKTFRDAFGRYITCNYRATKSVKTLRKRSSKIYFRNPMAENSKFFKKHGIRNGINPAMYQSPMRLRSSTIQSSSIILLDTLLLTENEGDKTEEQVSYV
In experiment [7] the target is 3',5'-cyclic-AMP phosphodiesterase 4A (Homo sapiens, UniProt P27815). The format is functional.
Sequence of 3',5'-cyclic-AMP phosphodiesterase 4A (P27815 whole entry): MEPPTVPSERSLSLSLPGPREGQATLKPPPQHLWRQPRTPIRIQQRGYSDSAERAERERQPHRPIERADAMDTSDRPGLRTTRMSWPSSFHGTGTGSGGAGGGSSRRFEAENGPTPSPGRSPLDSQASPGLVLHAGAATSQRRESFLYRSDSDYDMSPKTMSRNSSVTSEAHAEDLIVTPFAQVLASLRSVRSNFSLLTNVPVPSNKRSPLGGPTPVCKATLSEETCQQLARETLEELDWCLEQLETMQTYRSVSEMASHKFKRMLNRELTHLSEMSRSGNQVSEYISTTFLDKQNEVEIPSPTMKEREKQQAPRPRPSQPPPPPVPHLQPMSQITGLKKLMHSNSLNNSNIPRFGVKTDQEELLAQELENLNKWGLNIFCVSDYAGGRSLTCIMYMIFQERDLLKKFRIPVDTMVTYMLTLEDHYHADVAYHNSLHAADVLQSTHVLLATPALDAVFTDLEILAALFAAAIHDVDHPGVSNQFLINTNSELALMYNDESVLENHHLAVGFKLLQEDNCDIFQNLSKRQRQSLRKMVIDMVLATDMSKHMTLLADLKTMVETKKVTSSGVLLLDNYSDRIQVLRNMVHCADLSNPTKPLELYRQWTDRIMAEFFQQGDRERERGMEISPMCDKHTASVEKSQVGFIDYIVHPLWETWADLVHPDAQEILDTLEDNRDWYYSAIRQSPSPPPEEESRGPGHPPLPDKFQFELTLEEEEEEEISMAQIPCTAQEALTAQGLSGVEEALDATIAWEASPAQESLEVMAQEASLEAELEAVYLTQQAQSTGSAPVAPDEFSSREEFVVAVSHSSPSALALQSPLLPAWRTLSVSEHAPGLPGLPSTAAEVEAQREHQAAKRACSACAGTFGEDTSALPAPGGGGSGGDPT
Experiment [8] deals with T6, Thromboxane A2 receptor (Homo sapiens, UniProt P21731).
T6 sequence (P21731 whole entry): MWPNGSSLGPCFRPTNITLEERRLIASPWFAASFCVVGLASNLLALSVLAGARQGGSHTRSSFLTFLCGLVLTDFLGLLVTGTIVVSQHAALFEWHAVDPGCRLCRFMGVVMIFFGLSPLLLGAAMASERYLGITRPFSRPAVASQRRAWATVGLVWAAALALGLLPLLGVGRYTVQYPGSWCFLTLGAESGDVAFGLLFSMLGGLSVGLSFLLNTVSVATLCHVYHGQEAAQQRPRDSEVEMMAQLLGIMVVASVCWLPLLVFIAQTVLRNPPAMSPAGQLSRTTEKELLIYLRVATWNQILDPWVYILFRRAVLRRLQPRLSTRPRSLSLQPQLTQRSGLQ
The format is functional, cell-based.

The target in experiment [9] is T6, Thromboxane A2 receptor. The format is functional, cell-based. This is another data set of the same source.

Structures are written as SMILES. Bounds are passed on as bounds.
Also: assay procedure not described here.

Sequence of Acetylcholinesterase (P22303 whole entry): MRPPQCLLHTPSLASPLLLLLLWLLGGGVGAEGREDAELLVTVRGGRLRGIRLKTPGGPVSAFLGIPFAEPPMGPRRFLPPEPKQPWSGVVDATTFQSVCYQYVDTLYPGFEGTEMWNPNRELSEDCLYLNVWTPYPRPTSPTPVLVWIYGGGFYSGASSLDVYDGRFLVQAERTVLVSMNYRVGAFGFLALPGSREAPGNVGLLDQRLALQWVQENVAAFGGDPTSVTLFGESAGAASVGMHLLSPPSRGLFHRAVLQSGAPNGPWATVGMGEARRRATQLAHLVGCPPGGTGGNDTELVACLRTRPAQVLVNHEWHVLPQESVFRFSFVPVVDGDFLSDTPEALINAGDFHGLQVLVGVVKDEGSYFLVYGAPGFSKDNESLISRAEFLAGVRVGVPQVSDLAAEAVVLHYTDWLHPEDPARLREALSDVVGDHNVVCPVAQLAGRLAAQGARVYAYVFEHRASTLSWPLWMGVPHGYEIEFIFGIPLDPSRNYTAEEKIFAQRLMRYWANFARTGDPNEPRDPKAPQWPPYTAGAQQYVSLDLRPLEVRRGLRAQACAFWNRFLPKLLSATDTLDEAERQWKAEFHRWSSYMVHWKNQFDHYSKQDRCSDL

As for `CC(C1=C(CCN(C)C)Cc2ccccc21)c1ccccn1` (configuration not stated), the half-maximal activity concentration (AC50) at Acetylcholinesterase was over 30 µM; on Adenosine receptor A3, over 30 µM; in experiment [1], over 30 µM; in experiment [2], 8.8 µM; in experiment [3], 15.1 µM; in [4], 0.0784 µM. The concentration at half-maximal activity (AC50) was 6.52 µM on D(1A) dopamine receptor; over 30 µM on Prothrombin; 8.78 µM in experiment [5]; over 30 µM in [6]; over 30 µM in [7]; over 30 µM on Thromboxane A2 receptor [8]. On Thromboxane A2 receptor [9], this compound gave a concentration at half-maximal activity (AC50) of over 30 µM.

Consider `C[C@H](N)C(=O)O` [ALANINE], for which the AC50 (at Acetylcholinesterase; on Adenosine receptor A3; in [1]; in experiment [2]; in experiment [3]; in experiment [4]) was over 30 µM each time. The half-maximal activity concentration (AC50) (at D(1A) dopamine receptor; at Prothrombin; in [5]; in experiment [6]; in [7]; on Thromboxane A2 receptor [8]) was over 30 µM throughout. Also, the half-maximal activity concentration (AC50) at Thromboxane A2 receptor [9] is over 30 µM.

With `O=C1c2c(O)cccc2Cc2cccc(O)c21` [ANTHRALIN], the AC50 at Acetylcholinesterase was over 30 µM; on Adenosine receptor A3, over 3 µM; in [1] it was over 30 µM; in experiment [2] it was over 30 µM; in [3] it was over 30 µM; in experiment [4], over 3 µM. The AC50 at D(1A) dopamine receptor is over 30 µM; on Prothrombin, over 30 µM; in [5], over 30 µM; in [6], over 30 µM; in experiment [7], 0.262 µM; at Thromboxane A2 receptor [8] it was over 30 µM. Also, the AC50 on Thromboxane A2 receptor [9] is over 30 µM.

With `CNC(=O)C[C@@H](N)C(=O)N[C@@H](C(=O)N[C@@H]1C(=O)N2[C@@H]1SC(C)(C)[C@@H]2C(=O)O)c1ccc(O)cc1` [ASPOXICILLIN], the AC50 (at Acetylcholinesterase; at Adenosine receptor A3; in experiment [1]; in [2]; in experiment [3]; in [4]) was over 30 µM each time. The AC50 (on D(1A) dopamine receptor; on Prothrombin; in experiment [5]; in [6]; in [7]; at Thromboxane A2 receptor [8]) was over 30 µM throughout. In addition, on Thromboxane A2 receptor [9], the AC50 was over 30 µM.

For the compound `COC(=O)C1=C(C)NC(C)=C(C(=O)O[C@H]2CCN(Cc3ccccc3)C2)[C@H]1c1cccc([N+](=O)[O-])c1` [BARNIDIPINE], the half-maximal activity concentration (AC50) is over 30 µM at Acetylcholinesterase; 4.65 µM at Adenosine receptor A3; over 30 µM in experiment [1]; 1.31 µM in experiment [2]; 6.54 µM in experiment [3]; 2.35 µM in experiment [4]. The AC50 at D(1A) dopamine receptor was 8.89 µM; at Prothrombin, over 30 µM; in experiment [5], 6.56 µM; in experiment [6], over 30 µM; in [7] it was over 30 µM; at Thromboxane A2 receptor [8], over 30 µM. Further, at Thromboxane A2 receptor [9], the half-maximal activity concentration (AC50) was determined as 4.47 µM.

Take `CCCCOc1ccc(CC(=O)NO)cc1` [BUFEXAMAC]: the AC50 (on Acetylcholinesterase; on Adenosine receptor A3; in experiment [1]; in experiment [2]; in experiment [3]; in experiment [4]) was over 30 µM each time. The AC50 at D(1A) dopamine receptor was over 30 µM; at Prothrombin it was over 30 µM; in experiment [5], over 30 µM; in experiment [6], over 30 µM; in experiment [7], 0.53 µM; at Thromboxane A2 receptor [8] it was over 30 µM. At Thromboxane A2 receptor [9], this compound showed an AC50 of over 30 µM.

Take `Cc1nnc(SCC2=C(C(=O)O)N3C(=O)[C@@H](NC(=O)Cn4cc(Cl)c(=O)c(Cl)c4)[C@H]3SC2)s1` [CEFAZEDONE]: the concentration at half-maximal activity (AC50) (at Acetylcholinesterase; on Adenosine receptor A3; in experiment [1]; in [2]; in [3]; in experiment [4]) was over 30 µM in each case. In addition, the AC50 was over 30 µM on D(1A) dopamine receptor; over 30 µM at Prothrombin; over 30 µM in experiment [5]; over 30 µM in experiment [6]; 28.1 µM in experiment [7]; over 30 µM at Thromboxane A2 receptor [8]. This compound also yielded an AC50 at Thromboxane A2 receptor [9] of over 30 µM.

`Nc1ncnc(Nc2ccc(Cl)cc2)n1` [CHLORAZANIL]: the AC50 on Acetylcholinesterase is over 30 µM; on Adenosine receptor A3, 7.95 µM; in [1], over 30 µM; in [2], over 30 µM; in [3] it was over 30 µM; in [4], over 30 µM. Besides, the concentration at half-maximal activity (AC50) was over 30 µM on D(1A) dopamine receptor; over 30 µM at Prothrombin; over 30 µM in experiment [5]; over 30 µM in [6]; 19.7 µM in [7]; over 30 µM on Thromboxane A2 receptor [8]. On Thromboxane A2 receptor [9], the AC50 was over 30 µM.

`O=C(O)CC(O)(CC(=O)O)C(=O)O` [CITRIC ACID]: the AC50 (on Acetylcholinesterase; on Adenosine receptor A3; in [1]; in [2]; in experiment [3]; in experiment [4]) was over 30 µM throughout. Besides, the concentration at half-maximal activity (AC50) (at D(1A) dopamine receptor; at Prothrombin; in experiment [5]; in experiment [6]; in experiment [7]; on Thromboxane A2 receptor [8]) was over 30 µM throughout. Besides, the concentration at half-maximal activity (AC50) on Thromboxane A2 receptor [9] was over 30 µM.

Usually AC50 stands for the concentration giving half of the maximal activity seen.
